Read-outs that look alike come from different tables or passages of the source.
Experiment: Biodistribution of 99mTc complexes in rats
Type: in vivo, Australian Albino Wistar Rats
Details: rat, rats; for tissue uptake at 0.5 min: 30 sec; for tissue uptake at 0.05 h: 3 min
Procedure: A typical method of radiolabelling of the chelator was achieved by dissolving the chelator in a basic solution of saline. The pH was then adjusted to approx. 6 with HCl. Excess stannous chloride was added to the resultant solution followed by one equivalent volume of sodium ^99m TcO4 (10-50 mCi/ml). Final concentration of the chelator was approx. 1 mg/ml. The efficacy of labelling was determined by ITLC-SG. For each product only one main radiochemical species was observed. Each complex was diluted to 15 μCi/100 μl with saline. […] (See FIGS. 1A and 1B).
Selected data from biodistribution results of technetium-99m complexes of No. 1, No. 2 and No 4 in the liver, kidney and blood at 3 minutes is tabulated below.

[1] = blood, read-out: biodistribution blood
[2] = bone, read-out: biodistribution bone
[3] = brain, read-out: biodistribution brain
[4] = eyes, read-out: biodistribution eyes
[5] = heart, read-out: biodistribution heart
[6] = kidneys, read-out: biodistribution kidneys
[7] = liver, read-out: biodistribution liver
[8] = lungs, read-out: biodistribution lungs
[9] = muscle, read-out: biodistribution muscle
[10] = pancreas, read-out: biodistribution pancreas
[11] = skin, read-out: biodistribution skin
[12] = spleen, read-out: biodistribution spleen
[13] = tail, read-out: biodistribution tail
[14] = thymus, read-out: biodistribution thymus
[15] = thyroid, read-out: biodistribution thyroid

O=C(O)CN(CCN(CC(=O)O)CC(=O)Nc1cc([N+](=O)[O-])ccc1O)CC(=O)Nc1cc([N+](=O)[O-])ccc1O [Compound 3]
tissue uptake at 0.5 min [1]: 2.1 %ID/g
tissue uptake at 1 min [1]: 1.83 %ID/g
tissue uptake at 0.05 h [1]: 1.37 %ID/g
tissue uptake at 5 min [1]: 1.17 %ID/g
tissue uptake at 10 min [1]: 0.86 %ID/g
tissue uptake at 0.5 min [2]: 0.3 %ID/g
tissue uptake at 1 min [2]: 0.29 %ID/g
tissue uptake at 0.05 h [2]: 0.3 %ID/g
tissue uptake at 5 min [2]: 0.29 %ID/g
tissue uptake at 10 min [2]: 0.22 %ID/g
tissue uptake at 0.5 min [3]: 0.18 %ID/g
tissue uptake at 1 min [3]: 0.14 %ID/g
tissue uptake at 0.05 h [3]: 0.09 %ID/g
tissue uptake at 5 min [3]: 0.08 %ID/g
tissue uptake at 10 min [3]: 0.05 %ID/g
tissue uptake at 0.5 min [4]: 0.2 %ID/g
tissue uptake at 1 min [4]: 0.23 %ID/g
tissue uptake at 0.05 h [4]: 0.23 %ID/g
tissue uptake at 5 min [4]: 0.17 %ID/g
tissue uptake at 10 min [4]: 0.18 %ID/g
tissue uptake at 0.5 min [5]: 0.78 %ID/g
tissue uptake at 1 min [5]: 0.65 %ID/g
tissue uptake at 0.05 h [5]: 0.55 %ID/g
tissue uptake at 5 min [5]: 0.45 %ID/g
tissue uptake at 10 min [5]: 0.34 %ID/g
tissue uptake at 0.5 min [6]: 3.92 %ID/g
tissue uptake at 1 min [6]: 4.63 %ID/g
tissue uptake at 0.05 h [6]: 4.27 %ID/g
tissue uptake at 5 min [6]: 3 %ID/g
tissue uptake at 10 min [6]: 2.1 %ID/g
tissue uptake at 0.5 min [7]: 1.43 %ID/g
tissue uptake at 1 min [7]: 1.61 %ID/g
tissue uptake at 0.05 h [7]: 1.61 %ID/g
tissue uptake at 5 min [7]: 1.24 %ID/g
tissue uptake at 10 min [7]: 0.92 %ID/g
tissue uptake at 0.5 min [8]: 1.24 %ID/g
tissue uptake at 1 min [8]: 1.04 %ID/g
tissue uptake at 0.05 h [8]: 0.87 %ID/g
tissue uptake at 5 min [8]: 0.72 %ID/g
tissue uptake at 10 min [8]: 0.57 %ID/g
tissue uptake at 0.5 min [9]: 0.26 %ID/g
tissue uptake at 1 min [9]: 0.24 %ID/g
tissue uptake at 0.05 h [9]: 0.23 %ID/g
tissue uptake at 5 min [9]: 0.21 %ID/g
tissue uptake at 10 min [9]: 0.22 %ID/g
tissue uptake at 0.5 min [10]: 0.47 %ID/g
tissue uptake at 1 min [10]: 0.41 %ID/g
tissue uptake at 0.05 h [10]: 0.38 %ID/g
tissue uptake at 5 min [10]: 0.42 %ID/g
tissue uptake at 10 min [10]: 0.21 %ID/g
tissue uptake at 0.5 min [11]: 0.49 %ID/g
tissue uptake at 1 min [11]: 0.43 %ID/g
tissue uptake at 0.05 h [11]: 0.58 %ID/g
tissue uptake at 5 min [11]: 0.64 %ID/g
tissue uptake at 10 min [11]: 0.63 %ID/g
tissue uptake at 0.5 min [12]: 0.49 %ID/g
tissue uptake at 1 min [12]: 0.42 %ID/g
tissue uptake at 0.05 h [12]: 0.29 %ID/g
tissue uptake at 5 min [12]: 0.23 %ID/g
tissue uptake at 10 min [12]: 0.17 %ID/g
tissue uptake at 0.5 min [13]: 0.85 %ID/g
tissue uptake at 1 min [13]: 2.43 %ID/g
tissue uptake at 0.05 h [13]: 0.63 %ID/g
tissue uptake at 5 min [13]: 0.84 %ID/g
tissue uptake at 10 min [13]: 0.84 %ID/g
tissue uptake at 0.5 min [14]: 0.38 %ID/g
tissue uptake at 1 min [14]: 0.34 %ID/g
tissue uptake at 0.05 h [14]: 0.32 %ID/g
tissue uptake at 5 min [14]: 0.25 %ID/g
tissue uptake at 10 min [14]: 0.2 %ID/g
tissue uptake at 0.5 min [15]: 1.11 %ID/g
tissue uptake at 1 min [15]: 1.14 %ID/g
tissue uptake at 0.05 h [15]: 0.92 %ID/g
tissue uptake at 5 min [15]: 0.7 %ID/g
tissue uptake at 10 min [15]: 0.63 %ID/g
